From patent US11596629B2, “Compounds and methods for treating cancer” (Mayo Foundation for Medical Education and Research, priority 2017, dated 2023)
Entries after “also recorded” stand apart in the source; their conditions may differ.

What was measured:
[1] = system: 4T1 TNBC breast cancer cells; assay: Tumor cell phagocytosis in vitro; format: cell-based; conditions: 4T1 cells
OT-II CD4 T cells = assay: OT-II CD4 T cell proliferation in co-culture; format: cell-based; conditions: for OT-II CD4 T cell proliferation: SSI-4 1000 nM
TUBO tumors [2] = assay: TUBO HER2-positive tumors, SSI-4, PD-1 blockade and combination, CD8 depletion; conditions: SSI-4 monotherapy
Protocol: Materials and methods: The checkpoint inhibitor used was a mouse anti-PD-1 that was purchased from BioXCell (catalog #BE0146). The checkpoint inhibitor was administered at 100 μg/dose (5 mg/kg) by intraperitoneal (IP) injection.
(§3) To negate the effects of PD-L1 upregulation, the combination of PD-1 antibody-mediated blockade, the receptor for PD-L1, and SSI-4, was tested.

E0771-E2 tumors = assay: E0771-E2 tumor bearing mice, SSI-4, PD-1 blockade and combination
Protocol: The checkpoint inhibitor was administered at 100 μg/dose (5 mg/kg) by intraperitoneal (IP) injection.
as §3
Tumor-infiltrating (TI) leukocytes and lymphocytes were assessed by multicolor flow cytometry on dissociated treated tumor tissue extracted from E0771-E2 bearing mice on day 27 of the study. […] 5G: To determine whether anti-tumor activity of SSI-4/PD-1 combination therapy is dependent on cytotoxic CD8 T lymphocyte activity, CD8 depletion studies were performed in mice receiving either placebo or combination therapy.

E0771-E2 cells [3] = assay: Tumor cell phagocytosis by bone marrow-derived macrophages (BMDM) in vitro; format: cell-based, murine
Protocol: (§1) CRT behaves as a pro-phagocytic signal. The effect of SSI-4 treatment on tumor cell phagocytosis by bone marrow-derived macrophages (BMDM) in vitro was determined. SSI-4 (1000 nM) induced the highest level of phagocytosis in both TUBO and E0771-E2 cells (5 and 13%, respectively) (FIG. 2a). […] Downstream activation of T lymphocytes is dependent on the successful maturation and presentation of antigen by antigen-presenting cells such as macrophages (Woo 2015). SSI-4 driven activation of BMDMs in vitro was evaluated by measuring antigen presentation of chicken ovalbumin (cOva) by MHC class I receptors on BMDM after co-culturing them with cOva-expressing tumor cells. […] CD8+ T lymphocyte activation was evaluated in vitro using splenic T cells derived from OT-I transgenic mice which recognize ovalbumin residues 257-264 in the context of H2Kb. Proliferation and interferon gamma (IFNγ) production was measured in T lymphocytes co-cultured with both cOva-expressing tumor cells and BMDM treated with SSI-4. In addition, in order to evaluate whether the effects of SSI-4 on T lymphocyte activation were direct or mediated through a tumor-specific mechanism, concurrent analysis in SSI-4 treated T lymphocytes alone and T lymphocytes co-cultured with BMDM only was performed.

TUBO cells [4] = assay: as above; format: cell-based, murine
Protocol: as §1

OT-I CD8 T cells = assay: CD8+ T lymphocyte activation in vitro (proliferation, IFNγ) in co-culture with cOva-expressing tumor cells and BMDM; format: cell-based, mice; conditions: for interferon gamma (IFNγ) production in OT-I CD8 T cells / OT-I CD8 T cell proliferation: SSI-4 1000 nM
Protocol: as §1

[5] = system: live tumor cells (HER2-positive and TNBC breast cancer); assay: Plasma membrane translocation of calreticulin, flow cytometry on live tumor cells; format: cell-based, murine; conditions: 48 hour treatment
Protocol: Significance shown for 1000 nM dose (anova).
(§2) SSI-4 induces ER stress in tumor cells. […] ER stress can provoke a therapeutically relevant adaptive immune response against malignant cells through the emission of immunostimulatory signals, or damage-associated molecular patterns (DAMPs) such as heat shock proteins and translocation of calreticulin (CRT) to the plasma membrane (17). In particular, phosphorylation of eIF2a has been reported to mediate CRT translocation (20) which is correlated with the induction of immunogenic cell death (ICD) and favorable disease outcome in a variety of malignancies (17).

[6] = system: TUBO, E0771-E2, and N202 tumor cells; assay: ER stress activation in tumor cells (p-eIF2α Ser51, CHOP levels); format: cell-based, murine; conditions: SSI-4 10-1000 nM
Text: as §2

TUBO tumors [7] = assay: TUBO orthotopic mammary fat pad tumors, SSI-4 monotherapy; format: in vivo, BALB/c mice
Protocol: SSI-4 mediated immunomodulation in vivo was evaluated. TUBO cells were injected orthotopically into the mammary fat pad of BALB/c mice. Animals received either sham or SSI-4 (180 mg/kg) orally (continuous) when tumor burden reached 50-100 mm^3. […] Tumor tissue was harvested 14 days after treatment onset for analysis.
As SSI-4 treatment of tumor cells enhances the antigen presenting capabilities of APCs in vitro, tumor-associated recruitment of professional phagocytes in vivo including macrophages (MP) and dendritic cells (DC) was evaluated. The ratio of tumor leukocyte recruitment by comparing the ratio of cluster of differentiation 45 antigen (CD45) positive to negative cells sorted from dissociated tumor tissue within control and SSI-4 treated mice was determined. Results indicated a 10% increase in the number of tumor-associated leukocytes within SSI-4 treated animals (FIG. 3f). Next, tumor sections were stained for F4/80, a macrophage (MP) marker. […] To determine intra-tumor dendritic cell infiltration, tumors were dissociated and analyzed via flow cytometry for DCs based on CD45^+MHCII^+CD11c^hi expression. […] As tumor-associated macrophage (TAM) cells can be correlated with either a tumor-suppressive or pro-inflammatory phenotype, we sorted this population identified by MHCII^+CD11c^loF4/80^+ based on the polarization markers interleukin-1β (IL-1β) and IL-10, comparing the expression profiles from both treatment groups as well as mammary tissue extracted from non-tumor bearing mice.
SSI-4 mediated APC activation could augment T lymphocyte infiltration and activation. […] The maturation status of T lymphocytes from CD3+ cells isolated from the spleen of treated animals by comparing the ratio of CD44 to CD62L expression in either CD4 or CD8 T-cells was examined. […] The activation status of T lymphocytes isolated from digested tumors was also assessed. […] Granzyme B-positive CD8 T-cells were also enriched in SSI-4 treated tumors (FIG. 4f), another marker for activated CD8+ T lymphocytes.

[8] = system: E0771 TNBC breast cancer cells; assay: Tumor cell phagocytosis in vitro; format: cell-based
Protocol: as §1

E0771-E2 cells [9] = assay: Antigen presentation of cOva by MHC class I on BMDM co-cultured with cOva-expressing tumor cells; format: cell-based, murine
Protocol: as §1

TUBO cells [10] = assay: as above; format: cell-based, murine
Protocol: as §1

[11] = SSI-4 treated T lymphocytes alone or T lymphocyte-BMDM co-cultures
[12] = splenic CD3+ cells, CD44 to CD62L
[13] = tumor tissue 14 days after treatment onset

## CNC(=O)c1ccnc(NC(=O)N2CCC(Oc3ccccc3Cl)CC2)c1 [SSI-4, 2-{[4-(2-Chlorophenoxy)piperidine-1-carbonyl]amino}-N-methylpyridine-4-carboxamide]
[1]
  SSI-4 induced phagocytosis with adjuvant CRT neutralization: reversed
[1]; SSI-4 1000 nM
  level of phagocytosis: 12.5%
OT-II CD4 T cells; E0771-E2
  SSI-4 enhanced OT-II CD4 T cell proliferation with adjuvant CRT neutralization: inhibited
  OT-II CD4 T cell proliferation: significantly enhanced
OT-II CD4 T cells; MMTV-neu
  SSI-4 enhanced OT-II CD4 T cell proliferation with adjuvant CRT neutralization: inhibited
  OT-II CD4 T cell proliferation: significantly enhanced
TUBO tumors [2]
  improved median survival compared to PD-1 monotherapy: ~35%
  improved median survival compared to sham: approximately 37%
E0771-E2 tumors; EO771-E2 tumor bearing mice
  programmed death ligand-1 (PD-L1) expression in tumor: induces
E0771-E2 tumors; FIG. 25
  protein expression of PD-L1 in tumor-infiltrating dendritic and macrophage cells: significant changes
E0771-E2 tumors; SSI-4 monotherapy
  improved median survival compared to PD-1 monotherapy: ~20%
  improved median survival compared to sham: approximately 22%
E0771-E2 tumors; dissociated tumors
  effector/cytotoxic CD8+ T lymphocytes in tumor: increased; also recorded: significant increase
E0771-E2 tumors; flow cytometry, day 27
  increase of intratumor infiltration of macrophages: approximately 8%
E0771-E2 tumors; intratumor dendritic cells
  protein expression of checkpoints PD-L1 or PD-L2 in dendritic cells: No significant changes
E0771-E2 tumors; intratumor macrophages
  PD-L1 expression on macrophages: increased PD-L1; also recorded: strongly induce PD-L1 expression on macrophages
E0771-E2 tumors; mouse, in vivo
  intratumor population of T regulatory cells: deleterious effect
  tumor infiltrating macrophages: increased the number of tumor infiltrating macrophages; also recorded: significant influx
E0771-E2 tumors; tumor-infiltrating T lymphocytes
  checkpoint protein expression (CTLA-4, TIM3) on CD4 and CD8 positive T lymphocytes: upregulation of both CTLA-4 and TIM-3
E0771-E2 cells [3]; CRT blocking antibody
  SSI-4 induced phagocytosis with adjuvant CRT neutralization: reversed; also recorded: significantly abrogate
E0771-E2 cells [3]; SSI-4 1000 nM
  level of phagocytosis: 13%
TUBO cells [4]; CRT blocking antibody
  SSI-4 induced phagocytosis with adjuvant CRT neutralization: reversed; also recorded: significantly abrogate
TUBO cells [4]; SSI-4 1000 nM
  level of phagocytosis: 5%
OT-I CD8 T cells; E0771-E2 cells
  SSI-4 enhanced IFNγ production with CRT neutralization: mild (n.s.) decrease
  SSI-4 enhanced OT-I CD8 T cell proliferation with adjuvant CRT neutralization: inhibited
OT-I CD8 T cells; MMTV-neu cells
  SSI-4 enhanced IFNγ production with adjuvant CRT neutralization: inhibited; also recorded: abrogate
  SSI-4 enhanced OT-I CD8 T cell proliferation with adjuvant CRT neutralization: inhibited; also recorded: abrogate
OT-I CD8 T cells; triple culture with E0771-E2
  interferon gamma (IFNγ) production in OT-I CD8 T cells: significantly enhanced; also recorded: potently induce
OT-I CD8 T cells; triple culture with E0771-E2 tumor cells and macrophages
  OT-I CD8 T cell proliferation: significantly enhanced; also recorded: potently induce
OT-I CD8 T cells; triple culture with MMTV-neu
  interferon gamma (IFNγ) production in OT-I CD8 T cells: significantly enhanced; also recorded: potently induce
OT-I CD8 T cells; triple culture with MMTV-neu tumor cells and macrophages
  OT-I CD8 T cell proliferation: significantly enhanced; also recorded: potently induce
OT-I CD8 T cells; [11]
  IFNγ production without tumor cells: No significant changes
  T lymphocyte proliferation without tumor cells: could not induce T cell proliferation; also recorded: No significant changes
OT-I CD8 T cells; SSI-4 treatment
  T cell proliferation with tumor cells bearing empty vector (EV), no cOVA antigen: could not similarly stimulate T cell proliferation
[5]; 10 nM, flow cytometry on live tumor cells
  plasma membrane translocation/expression of calreticulin (CRT): induces plasma membrane translocation of calreticulin; also recorded: potently upregulates plasma membrane expression of CRT
[5]; 10-1000 nM, HER2-positive and TNBC breast cancer cells, significance shown for 1000 nM
  plasma membrane translocation of calreticulin: induces plasma membrane translocation of calreticulin
[6]
  activation of ER stress (phosphorylated eIF2α at serine51 and CHOP levels): activation of ER stress
TUBO tumors [7]; IHC of tumor sections
  number of CD4+ tumor-infiltrating populations: significant increase
  number of CD8+ tumor-infiltrating populations: significant increase
TUBO tumors [7]; IHC of tumor sections, TUBO tumor bearing mice
  programmed death ligand-1 (PD-L1) expression in tumor: induces
TUBO tumors [7]; MHCII+CD11cloF4/80+ cells
  pro-inflammatory cytokine (IL-1β) expression in tumor-associated macrophages: increased expression of pro-inflammatory cytokines; also recorded: significant increase in IL-1β
TUBO tumors [7]; SSI-4 180 mg/kg orally (continuous) vs sham
  overall survival: appreciable increase in overall survival
TUBO tumors [7]; SSI-4 180 mg/kg orally (continuous) vs sham, 180 mg/kg
  tumor progression: slower tumor progression; also recorded: tumor progression invariably occurred
TUBO tumors [7]; SSI-4 180 mg/kg orally (continuous), when control animals reached endpoint
  tumor sizes at 30 days after onset of therapy: markedly smaller tumor sizes
TUBO tumors [7]; T lymphocytes from digested tumors
  effector CD4 and CD8 T lymphocytes identified by IFNγ: markedly increased
TUBO tumors [7]; dissociated tumor tissue, SSI-4 vs control
  increase in the number of tumor-associated leukocytes (CD45): 10%
TUBO tumors [7]; flow cytometry CD45+MHCII+CD11chi, vs control treated tumors and normal mammary tissue
  number of intra-tumor dendritic cells: significant increase
TUBO tumors [7]; mouse, in vivo
  perforin in tumors: significant increase in perforin
TUBO tumors [7]; spleen
  naïve T-cell numbers: concomitant decrease
TUBO tumors [7]; [12]
  memory and effector T-cells among CD4 positive T cell populations: robust induction
  memory and effector T-cells among CD8 positive T cell populations: robust induction
TUBO tumors [7]; tumor sections
  intra-tumor penetration of macrophages (F4/80): increased intra-tumor penetration
  macrophages, positive F4/80 IHC staining: 43.3±8.6 % pop.
TUBO tumors [7]; tumor sections, sham 47.7±6.4
  Ki-67 protein staining: 36.7±6.2 %+nuclei
TUBO tumors [7]; tumor sections, sham H=4.9±2.6
  cleaved caspase 3 (CC3) staining, H: 10.7±3.9
TUBO tumors [7]; [13]
  cleaved caspase 3 (CC3) staining: significant increase
  proliferative capacity of tumors via nuclear Ki67 staining: significant reduction in the proliferative capacity
TUBO tumors [7]; tumors
  Granzyme B-positive CD8 T-cells: enriched
  number of intra-tumor T regulatory cells (dual CD25 and FoxP3 expression): significantly reduced; also recorded: profound decrease
[8]
  SSI-4 induced phagocytosis with adjuvant CRT neutralization: reversed
[8]; SSI-4 1000 nM
  level of phagocytosis: 9.4%
E0771-E2 cells [9]
  SSI-4 enhanced antigen presentation with adjuvant CRT neutralization: inhibited
E0771-E2 cells [9]; SSI-4 100 nM
  antigen presentation: 5%
E0771-E2 cells [9]; SSI-4 1000 nM
  antigen presentation: 5%
TUBO cells [10]
  SSI-4 enhanced antigen presentation with adjuvant CRT neutralization: inhibited
TUBO cells [10]; SSI-4 100 nM
  antigen presentation: 8.5%
TUBO cells [10]; SSI-4 1000 nM
  antigen presentation: 8.5%
